Data from patent publication US9320278B2, “Methods of controlling insects” (Syngenta Participations AG, priority 2012, dated 2016).

Test system: Anthonomus grandis (Cotton Boll Weevil)
Test: Anthonomus grandis (Cotton Boll Weevil) test on treated cotton plants, mortality
Assay type: in vivo
Experimental: Anthonomus grandis (Cotton Boll Weevil)
Cotton plants are treated (100 mL spray volume) and 10 adult weevils are added to each plant (2 replicates per concentration). 5 days after infestation the mortality is assessed.
Compounds are tested according to the above method.

[1] = application rate 0.2 ppm, treated cotton plants, 10 adult weevils per plant, mortality 5 days after infestation
[2] = application rate 0.8 ppm, treated cotton plants, 10 adult weevils per plant, mortality 5 days after infestation
[3] = application rate 3 ppm, treated cotton plants, 10 adult weevils per plant, mortality 5 days after infestation
[4] = application rate 12.5 ppm, treated cotton plants, 10 adult weevils per plant, mortality 5 days after infestation
[5] = application rate 50 ppm, treated cotton plants, 10 adult weevils per plant, mortality 5 days after infestation
[6] = application rate 0.01 ppm, treated cotton plants, 10 adult weevils per plant, mortality 5 days after infestation
[7] = application rate 0.05 ppm, treated cotton plants, 10 adult weevils per plant, mortality 5 days after infestation
[8] = comparative example, application rate 0.8 ppm, Anthonomus grandis (Cotton boll weevil)
[9] = comparative example, application rate 3 ppm, Anthonomus grandis (Cotton boll weevil)
[10] = comparative example, application rate 12.5 ppm, Anthonomus grandis (Cotton boll weevil)

SMILES | Control/% [1] [%] | Control/% [2] [%] | Control/% [3] [%] | Control/% [4] [%] | Control/% [5] [%] | Control/% [6] [%] | Control/% [7] [%] | Control/% [8] [%] | Control/% [9] [%] | Control/% [10] [%]
Cc1cc(C2=NOC(c3cc(Cl)c(Cl)c(Cl)c3)(C(F)(F)F)C2)ccc1C(=O)NC1CON(CC(F)(F)F)C1=O (mixture of isomers) [Compound A1] | 45 | 90 | 100 | 100 | 95 |  |  |  |  | 
Cc1cc(C2=NOC(c3cc(Cl)cc(Cl)c3)(C(F)(F)F)C2)ccc1C(=O)NC1CON(C)C1=O (mixture of isomers) [Compound A2] | 45 | 80 | 100 | 100 | 100 |  |  |  |  | 
CCN1OCC(NC(=O)c2ccc(C3=NOC(c4cc(Cl)c(F)c(Cl)c4)(C(F)(F)F)C3)cc2C)C1=O (mixture of isomers) [Compound A5] | 40 | 40 | 95 | 100 | 100 |  |  |  |  | 
Cc1cc(C2=NOC(c3cc(Cl)cc(Cl)c3)(C(F)(F)F)C2)ccc1C(=O)NC1CON(CC(F)F)C1=O (mixture of isomers) [Compound A6] | 95 | 100 | 100 |  |  | 35 | 50 |  |  | 
Cc1cc(C2=NOC(c3cc(Cl)cc(Cl)c3)(C(F)(F)F)C2)ccc1C(=O)NC1CON(CC(F)(F)F)C1=O (mixture of isomers) [Compound A8] | 70 | 100 | 100 |  |  | 20 | 35 |  |  | 
CCN1OCC(NC(=O)c2ccc(C3=NOC(c4cc(Cl)cc(Cl)c4)(C(F)(F)F)C3)cc2C)C1=O (mixture of isomers) [Compound A9] | 25 | 15 | 75 | 100 | 100 |  |  |  |  | 
Cc1cc(C2=NOC(c3cc(Cl)cc(Cl)c3)(C(F)(F)F)C2)ccc1C(=O)NC1CON(CC(F)(F)F)C1=O (mixture of isomers) [Compound A21] | 70 |  |  | 100 | 100 |  |  |  |  | 
Cc1cc(C2=NO[C@@](c3cc(Cl)cc(Cl)c3)(C(F)(F)F)C2)ccc1C(=O)N[C@H]1CON(CC(F)(F)F)C1=O [Compound A3] | 60 | 60 | 100 | 100 | 100 |  |  |  |  | 
Cc1cc(C2=NO[C@@](c3cc(Cl)cc(Cl)c3)(C(F)(F)F)C2)ccc1C(=O)N[C@@H]1CON(CC(F)(F)F)C1=O [Compound A16] | 100 | 100 | 100 |  |  | 0 | 55 |  |  | 
CCN1OC[C@@H](NC(=O)c2ccc(C3=NO[C@@](c4cc(Cl)cc(Cl)c4)(C(F)(F)F)C3)cc2C)C1=O [Compound A17] | 20 | 50 | 100 | 100 | 100 |  |  |  |  | 
CCN1OC[C@@H](NC(=O)c2ccc(C3=NO[C@@](c4cc(Cl)cc(C(F)(F)F)c4)(C(F)(F)F)C3)c3ccccc23)C1=O [Compound A18] | 0 | 40 | 30 | 35 | 100 |  |  |  |  | 
CCN1OC[C@@H](NC(=O)c2ccc(C3=NO[C@@](c4cc(Cl)c(F)c(Cl)c4)(C(F)(F)F)C3)cc2Cl)C1=O [Compound A19] | 60 | 30 | 85 | 95 | 100 |  |  |  |  | 
CCN1OC[C@@H](NC(=O)c2ccc(C3=NO[C@@](c4cc(Cl)c(F)c(Cl)c4)(C(F)(F)F)C3)cc2C)C1=O [Compound A20] | 15 | 60 | 100 | 100 | 100 |  |  |  |  | 
Cc1cc(C2=NOC(c3cc(Cl)cc(Cl)c3)(C(F)(F)F)C2)ccc1C(=O)N[C@@H]1CON(CC(F)(F)F)C1=O (stereo partly drawn) [Compound of the invention] |  |  |  |  |  |  |  | 100 | 100 | 100
Cc1cc(C2=NOC(c3cc(Cl)cc(Cl)c3)(C(F)(F)F)C2)ccc1C(=O)N[C@@H]1CON(Cc2ccccc2)C1=O (stereo partly drawn) [Reference compound, reference compound] |  |  |  |  |  |  |  | 10 | 30 | 30
